# PubChem BioAssay AID248 (DTP/NCI, 2004)
# Where “and” joins values, the source holds several entries; their conditions need not be identical. Equal entries are not always repeated. Inconclusive results and toxic doses are left out.
# Test system: L1210 leukemia ip in BDF1 mice, survival T/C
# Assay: NCI In Vivo Anticancer Drug Screen. Data for tumor model L1210 Leukemia (intraperitoneal) in B6D2F1 (BDF1) mice
# Conditions: endpoint: mean survival time, higher = longer survival
# How it was run: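 Read-out is survival time, reported as the treated-group measurement over the vehicle-control measurement.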
smiles,measurement,setting,value
NC(=S)N/N=C/c1ccc(O)cn1,T/C,"dose: 3.13 mg/kg/injection, schedule: Q03HX024 (ip), vehicle: Klucel (hydroxypropylcellulose) (HPC)",120 % of control
same,T/C,"dose: 3.13 mg/kg/injection, schedule: Q03HX024 (ip), vehicle: other",120 % of control
same,T/C,"dose: 3.13 mg/kg/injection, schedule: Q03HX024 (ip), vehicle: saline",113 % of control
same,T/C,"dose: 6.25 mg/kg/injection, schedule: Q03HX024 (ip), vehicle: other",106 % of control
same,T/C,"dose: 9.5 mg/kg/injection, schedule: Q01DX005 (iv), vehicle: other",104 % of control
same,T/C,"dose: 11.0 mg/kg/injection, schedule: Q03HX032 (ip), vehicle: saline with Tween-80",123 % of control
same,T/C,"dose: 12.5 mg/kg/injection, schedule: Q03HX024 (ip), vehicle: other",106 % of control
same,T/C,"dose: 12.5 mg/kg/injection, schedule: Q03HX024 (ip), vehicle: saline",159 % of control
same,T/C,"dose: 19.0 mg/kg/injection, schedule: Q01DX005 (iv), vehicle: other",111 % of control
same,T/C,"dose: 25.0 mg/kg/injection, schedule: Q01DX015 (ip), vehicle: carboxymethylcellulose (CMC)",158 % of control
same,T/C,"dose: 33.0 mg/kg/injection, schedule: Q## X008 (ip), vehicle: other",124 % of control
same,T/C,"dose: 33.0 mg/kg/injection, schedule: Q## X016 (ip), vehicle: other",122 % of control
same,T/C,"dose: 37.5 mg/kg/injection, schedule: Q01DX005 (ip), vehicle: other",159 % of control
same,T/C,"dose: 40.0 mg/kg/injection, schedule: Q06HX016 (ip), vehicle: Klucel (hydroxypropylcellulose) (HPC)",154 % of control
same,T/C,"dose: 44.0 mg/kg/injection, schedule: Q03HX032 (ip), vehicle: saline with Tween-80",159 % of control
same,T/C,"dose: 50.0 mg/kg/injection, schedule: Q01DX001 (ip), vehicle: saline",114 % of control
same,T/C,"dose: 50.0 mg/kg/injection, schedule: Q01DX009 (oral), vehicle: carboxymethylcellulose (CMC)",120 % of control
same,T/C,"dose: 50.0 mg/kg/injection, schedule: Q03HX024 (ip), vehicle: other",151 % of control
same,T/C,"dose: 50.0 mg/kg/injection, schedule: Q03HX024 (ip), vehicle: saline",151 % of control
same,T/C,"dose: 62.0 mg/kg/injection, schedule: Q03HX032 (ip), vehicle: carboxymethylcellulose (CMC)",118 % of control
same,T/C,"dose: 66.0 mg/kg/injection, schedule: Q03HX032 (ip), vehicle: saline with Tween-80",102 % of control and 116 % of control
same,T/C,"dose: 75.0 mg/kg/injection, schedule: Q03HX008 (ip), vehicle: alkali diluted with saline",156 % of control
same,T/C,"dose: 93.0 mg/kg/injection, schedule: Q03HX032 (ip), vehicle: carboxymethylcellulose (CMC)",96 % of control
same,T/C,"dose: 100.0 mg/kg/injection, schedule: Q01DX001 (ip), vehicle: saline",120 % of control
same,T/C,"dose: 100.0 mg/kg/injection, schedule: Q01DX001 (oral), vehicle: other",106 % of control
same,T/C,"dose: 100.0 mg/kg/injection, schedule: Q01DX009 (oral), vehicle: other",121 % of control
same,T/C,"dose: 100.0 mg/kg/injection, schedule: Q03HX024 (ip), vehicle: saline",104 % of control
same,T/C,"dose: 100.0 mg/kg/injection, schedule: Q04DX003 (ip), vehicle: alkali diluted with saline",111 % of control
same,T/C,"dose: 100.0 mg/kg/injection, schedule: Q## X002 (oral), vehicle: other",98 % of control
same,T/C,"dose: 100.0 mg/kg/injection, schedule: Q## X003 (oral), vehicle: other",108 % of control
same,T/C,"dose: 100.0 mg/kg/injection, schedule: Q## X008 (oral), vehicle: other",101 % of control
same,T/C,"dose: 100.0 mg/kg/injection, schedule: Q## X016 (oral), vehicle: other",97 % of control
same,T/C,"dose: 100.0 mg/kg/injection, schedule: Q## X024 (oral), vehicle: other",101 % of control
same,T/C,"dose: 150.0 mg/kg/injection, schedule: Q01DX001 (ip), vehicle: alkali diluted with saline",104 % of control
same,T/C,"dose: 150.0 mg/kg/injection, schedule: Q01DX001 (ip), vehicle: other",118 % of control
same,T/C,"dose: 150.0 mg/kg/injection, schedule: Q03HX024 (ip), vehicle: saline",152 % of control
same,T/C,"dose: 150.0 mg/kg/injection, schedule: Q08DX002 (ip), vehicle: alkali diluted with saline",102 % of control
same,T/C,"dose: 150.0 mg/kg/injection, schedule: Q## X002 (ip), vehicle: other",114 % of control
same,T/C,"dose: 150.0 mg/kg/injection, schedule: Q## X016 (ip), vehicle: other",153 % of control
same,T/C,"dose: 200.0 mg/kg/injection, schedule: Q01DX001 (oral), vehicle: other",103 % of control
same,T/C,"dose: 200.0 mg/kg/injection, schedule: Q01DX009 (ip), vehicle: saline",119 % of control
same,T/C,"dose: 200.0 mg/kg/injection, schedule: Q01DX009 (oral), vehicle: carboxymethylcellulose (CMC)",157 % of control
same,T/C,"dose: 200.0 mg/kg/injection, schedule: Q04DX003 (ip), vehicle: alkali diluted with saline",112 % of control
same,T/C,"dose: 200.0 mg/kg/injection, schedule: Q## X002 (oral), vehicle: other",104 % of control
same,T/C,"dose: 200.0 mg/kg/injection, schedule: Q## X003 (oral), vehicle: other",112 % of control
